The values below come from PMC11375011, “Inducible auto-phosphorylation regulates a widespread family of nucleotidyltransferase toxins” (Nature Communications, 2024).

The target of experiment [1] is T1, MenA1:MenT1 (MenT1 in the presence of MenA1) (Mycobacterium tuberculosis, UniProt L7N686).
T1 construct: gene Rv0078A

Experiment [2] concerns the target T1, MenA1:MenT1 (MenT1 in the presence of MenA1). This is another data set of the same source.

For `Nc1ncnc2c1ncn2[C@@H]1O[C@H](COP(=O)(O)OP(=O)(O)O)[C@@H](O)[C@H]1O` [ADP], in experiment [1], the “phosphorylation assay of MenT1” value is “Co-incubation of MenT1, MenA1 and MgCl2 with ADP, but not AMP or AMP-PNP, supported phosphorylation”.
Regarding `Nc1ncnc2c1ncn2[C@@H]1O[C@H](COP(=O)(O)OP(=O)(O)OP(=O)(O)O)[C@@H](O)[C@H]1O` [ATP], the ΔTm result in experiment [2] is “no significant differences between mean ΔTm values were observed when incubated with any”.
On the same count and under the same terms, the same measure for `Nc1ccn([C@@H]2O[C@H](COP(=O)(O)OP(=O)(O)OP(=O)(O)O)[C@@H](O)[C@H]2O)c(=O)n1` [CTP]: “no significant differences between mean ΔTm values were observed when incubated with any”; for `Nc1nc2c(ncn2[C@@H]2O[C@H](COP(=O)(O)OP(=O)(O)OP(=O)(O)O)[C@@H](O)[C@H]2O)c(=O)[nH]1` [GTP]: “no significant differences between mean ΔTm values were observed when incubated with any”.
`O=c1ccn([C@@H]2O[C@H](COP(=O)(O)OP(=O)(O)OP(=O)(O)O)[C@@H](O)[C@H]2O)c(=O)[nH]1` [UTP]: the ΔTm result in experiment [2] is listed as “no significant differences between mean ΔTm values were observed when incubated with any”.
